In brackets after ≈: the same amount, converted by molar mass. Read-outs that look alike come from different tables or passages of the source.
Key:
Type in all cases: cell-based
P.vulgalis OX-11 = assay: In vitro antibacterial activity, agar disc dilution method; details: read-out: minimum growth inhibitory concentration (MIC)
Description: (§1) An in vitro antibacterial activity was measured by an agar disc dilution method.
(§2) Varied test bacteria were cultivated overnight in triptophane-soybroth. A Mueller Hinton agar containing the compound of this invention in varied concentrations was streaked with one platinum loopful of each of the bacteria (number of living cells 10^6/ml).

P.aeruginosa IFO3445 = assay: as above; details: Pseudomonas aeruginosa, read-out: minimum growth inhibitory concentration (MIC)
Description: as §1, §2

P.aeruginosa NCTC1049 = assay: as above; details: Pseudomonas aeruginosa, read-out: minimum growth inhibitory concentration (MIC)
Description: as §1, §2

S.marcescens IAM1184 = assay: as above; details: Serratia marcescens, read-out: minimum growth inhibitory concentration (MIC)
Description: as §1, §2

S.pyogenes Cook = assay: as above; details: Streptococcus pyogenes, read-out: minimum growth inhibitory concentration (MIC)
Description: as §1, §2

K.pneumoniae PCI602 = assay: as above; details: Klebsiella pneumoniae, read-out: minimum growth inhibitory concentration (MIC)
Description: as §1, §2

S.enteritidis G14 = assay: as above; details: Salmonella enterica, read-out: minimum growth inhibitory concentration (MIC)
Description: as §1, §2

P.aeruginosa PAD1 = assay: as above; details: Pseudomonas aeruginosa, read-out: minimum growth inhibitory concentration (MIC)
Description: as §1, §2

S.aureus 209p NIHJ JC1 = assay: as above; details: Staphylococcus aureus, read-out: minimum growth inhibitory concentration (MIC)
Description: as §1, §2

E.cloacae 963 = assay: as above; details: read-out: minimum growth inhibitory concentration (MIC)
Description: as §1, §2

M.luteus ATCC9341 = assay: as above; details: Micrococcus luteus, read-out: minimum growth inhibitory concentration (MIC)
Description: as §1, §2

S. aureus Terajima = assay: as above; details: Staphylococcus aureus, read-out: minimum growth inhibitory concentration (MIC)
Description: as §1, §2

P.morganii IFO3445 = assay: as above; details: Morganella morganii, read-out: minimum growth inhibitory concentration (MIC)
Description: as §1, §2

S.typhi 901 = assay: as above; details: Salmonella enterica, 16 h, read-out: minimum growth inhibitory concentration (MIC)
Description: as §1, §2

P.aeruginosa 64 = assay: MIC values of 10 kinds of Pseudomonas aeruginosa; details: Pseudomonas aeruginosa, 64, 16 h, read-out: MIC values
Description: as §1, §2
(§3) MIC values of 10 kinds of Pseudomonas aeruginosa were measured for Compound III, Comparative Example B and CAZ.

P.aeruginosa ATCC27318 = assay: MIC values of 10 kinds of Pseudomonas aeruginosa; details: ATCC27318, 16 h, read-out: MIC values
Description: as §1, §2, §3

P.aeruginosa NO. 97 = assay: MIC values of 10 kinds of Pseudomonas aeruginosa; details: NO.97, 16 h, read-out: MIC values
Description: as §1, §2, §3

P.aeruginosa 88 = assay: MIC values of 10 kinds of Pseudomonas aeruginosa; details: Pseudomonas aeruginosa, 88, 16 h, read-out: MIC values
Description: as §1, §2, §3

P.aeruginosa 0-11 = assay: MIC values of 10 kinds of Pseudomonas aeruginosa; details: Pseudomonas aeruginosa, 011, 16 h, read-out: MIC values
Description: as §1, §2, §3

P.aeruginosa N-2 = assay: MIC values of 10 kinds of Pseudomonas aeruginosa; details: N2, 16 h, read-out: MIC values
Description: as §1, §2, §3

P.aeruginosa ATCC27577 = assay: MIC values of 10 kinds of Pseudomonas aeruginosa; details: ATCC27577, 16 h, read-out: MIC values
Description: as §1, §2, §3

P.aeruginosa N-3 = assay: MIC values of 10 kinds of Pseudomonas aeruginosa; details: N3, 16 h, read-out: MIC values
Description: as §1, §2, §3

P.aeruginosa Tid53 = assay: MIC values of 10 kinds of Pseudomonas aeruginosa; details: TID53, 16 h, read-out: MIC values
Description: as §1, §2, §3

P.aeruginosa N-26 = assay: MIC values of 10 kinds of Pseudomonas aeruginosa; details: N26, 16 h, read-out: MIC values
Description: as §1, §2, §3

[1] = P.vulgalis OX-11, Mueller Hinton agar, 10^6/ml, 37°C for 16 hours
[2] = P.aeruginosa IFO3445, Mueller Hinton agar, 10^6/ml, 37°C for 16 hours
[3] = P.aeruginosa NCTC1049, Mueller Hinton agar, 10^6/ml, 37°C for 16 hours
[4] = S.marcescens IAM1184, Mueller Hinton agar, 10^6/ml, 37°C for 16 hours
[5] = S.pyogenes Cook, Mueller Hinton agar, 10^6/ml, 37°C for 16 hours
[6] = K.pneumoniae PCI602, Mueller Hinton agar, 10^6/ml, 37°C for 16 hours
[7] = S.enteritidis G14, Mueller Hinton agar, 10^6/ml, 37°C for 16 hours
[8] = P.aeruginosa PAD1, Mueller Hinton agar, 10^6/ml, 37°C for 16 hours
[9] = S.aureus 209p NIHJ JC1, Mueller Hinton agar, 10^6/ml, 37°C for 16 hours
[10] = Enterobacter cloacae, E.cloacae 963, Mueller Hinton agar, 10^6/ml, 37°C for 16 hours
[11] = M.luteus ATCC9341, Mueller Hinton agar, 10^6/ml, 37°C for 16 hours
[12] = S. aureus Terajima, Mueller Hinton agar, 10^6/ml, 37°C for 16 hours
[13] = P.morganii IFO3445, Mueller Hinton agar, 10^6/ml, 37°C for 16 hours

Compound: CC(C)(O/N=C(\C(=O)N[C@@H]1C(=O)N2C(C(=O)[O-])=C(C[n+]3ccccc3)CS[C@H]12)c1csc(N)n1)C(=O)O [CAZ, (6R,7R)-7-[(Z)-2-(2-amino-1,3-thiazol-4-yl)-2-(2-carbcxypropyl-2-yloxyimino)acetamide]-3-(l-pyridinium)methyl-3-cephem-4-carboxylate, reference compound]
- MIC (P.vulgalis OX-11; 16 h): 5 ng/mL (≈ 0.00915 µM)
- MIC (P.aeruginosa IFO3445; IFO3445, 16 h): 0.4 µg/mL (≈ 0.732 µM)
- MIC (P.aeruginosa NCTC1049; NCTC1049, 16 h): 0.4 µg/mL (≈ 0.732 µM)
- MIC (S.marcescens IAM1184; IAM1184, 16 h): 25 ng/mL (≈ 0.0457 µM)
- MIC (S.pyogenes Cook; 16 h): 0.4 µg/mL (≈ 0.732 µM)
- MIC (K.pneumoniae PCI602; PCI602, 16 h): 25 ng/mL (≈ 0.0457 µM)
- MIC (S.enteritidis G14; ENTERITIDIS, 16 h): 5 ng/mL (≈ 0.00915 µM)
- MIC (P.aeruginosa PAD1; PAD1, 16 h): 0.4 µg/mL (≈ 0.732 µM)
- MIC (S.aureus 209p NIHJ JC1; 16 h): 6.3 µg/mL (≈ 11.5 µM)
- MIC (E.cloacae 963; Enterobacter cloacae, 963, 16 h): 50 ng/mL (≈ 0.0915 µM)
- MIC (M.luteus ATCC9341; ATCC9341, 16 h): 0.4 µg/mL (≈ 0.732 µM)
- MIC (S. aureus Terajima; 16 h): 1.6 µg/mL (≈ 2.93 µM)
- MIC (P.morganii IFO3445; IFO3445, 16 h): 12.5 ng/mL (≈ 0.0229 µM)
- MIC (S.typhi 901): 100 ng/mL (≈ 0.183 µM)
- MIC (P.aeruginosa 64): 3.1 µg/mL (≈ 5.67 µM)
- MIC (P.aeruginosa ATCC27318): 1.6 µg/mL (≈ 2.93 µM)
- MIC (P.aeruginosa NO. 97): 3.1 µg/mL (≈ 5.67 µM)
- MIC (P.aeruginosa 88): 0.8 µg/mL (≈ 1.46 µM)
- MIC (P.aeruginosa 0-11): 3.1 µg/mL (≈ 5.67 µM)
- MIC (P.aeruginosa N-2): 0.8 µg/mL (≈ 1.46 µM)
- MIC (P.aeruginosa ATCC27577): 0.2 µg/mL (≈ 0.366 µM)
- MIC (P.aeruginosa N-3): 1.6 µg/mL (≈ 2.93 µM)
- MIC (P.aeruginosa Tid53): 6.3 µg/mL (≈ 11.5 µM)
- MIC (P.aeruginosa N-26): 1.6 µg/mL (≈ 2.93 µM)

Compound: Nc1nc(C(=NOC(C(=O)O)c2ccccc2)C(=O)NC2C(=O)N3C(C(=O)[O-])=C(C[n+]4ccc5cc(O)c(O)cc5c4)CSC23)ns1 [Compound IV, (6R,7R)-7-[(Z)-2-(5-amino-l,2,4-thiadiazol-3-yl-2-[(alpha-carboxybenzyl)oxyimino]acetamide-3-(6,7-dihydroxy-2-isoquinolinium)methyl-3-cephem-4-carboxylate]
- MIC (P.vulgalis OX-11; [1]): 5 ng/mL (≈ 0.00738 µM)
- MIC (P.aeruginosa IFO3445; [2]): 0.025 µg/mL (≈ 0.0369 µM)
- MIC (P.aeruginosa NCTC1049; [3]): 0.0125 µg/mL (≈ 0.0184 µM)
- MIC (S.marcescens IAM1184; [4]): 5 ng/mL (≈ 0.00738 µM)
- MIC (S.pyogenes Cook; [5]): 0.8 µg/mL (≈ 1.18 µM)
- MIC (K.pneumoniae PCI602; [6]): 5 ng/mL (≈ 0.00738 µM)
- MIC (S.enteritidis G14; [7]): 5 ng/mL (≈ 0.00738 µM)
- MIC (P.aeruginosa PAD1; [8]): 0.025 µg/mL (≈ 0.0369 µM)
- MIC (S.aureus 209p NIHJ JC1; [9]): 3.2 µg/mL (≈ 4.72 µM)
- MIC (E.cloacae 963; [10]): 5 ng/mL (≈ 0.00738 µM)
- MIC (M.luteus ATCC9341; [11]): 0.8 µg/mL (≈ 1.18 µM)
- MIC (S. aureus Terajima; [12]): 3.2 µg/mL (≈ 4.72 µM)
- MIC (P.morganii IFO3445; [13]): 5 ng/mL (≈ 0.00738 µM)
- MIC (S.typhi 901): 5 ng/mL (≈ 0.00738 µM)

Compound: Nc1nc(C(=NOCC(=O)O)C(=O)NC2C(=O)N3C(C(=O)[O-])=C(C[n+]4ccc5cc(O)c(O)cc5c4)CSC23)ns1 [Compound II, (6R,7R)-7-[(Z)-5-amino-1,2,4-thiadiazol-3-yl)-2-(carboxymethoxyimino)acetamidel-3-(6,7-dihydroxy-2-isoquinolinium)methyl-3-cephem-4-carboxylate]
- MIC (P.vulgalis OX-11; [1]): 5 ng/mL (≈ 0.00831 µM)
- MIC (P.aeruginosa IFO3445; [2]): 0.05 µg/mL (≈ 0.0831 µM)
- MIC (P.aeruginosa NCTC1049; [3]): 0.0125 µg/mL (≈ 0.0208 µM)
- MIC (S.marcescens IAM1184; [4]): 5 ng/mL (≈ 0.00831 µM)
- MIC (S.pyogenes Cook; [5]): 0.2 µg/mL (≈ 0.332 µM)
- MIC (K.pneumoniae PCI602; [6]): 5 ng/mL (≈ 0.00831 µM)
- MIC (S.enteritidis G14; [7]): 5 ng/mL (≈ 0.00831 µM)
- MIC (P.aeruginosa PAD1; [8]): 0.025 µg/mL (≈ 0.0416 µM)
- MIC (S.aureus 209p NIHJ JC1; [9]): 12.5 µg/mL (≈ 20.8 µM)
- MIC (E.cloacae 963; [10]): 5 ng/mL (≈ 0.00831 µM)
- MIC (M.luteus ATCC9341; [11]): 1.6 µg/mL (≈ 2.66 µM)
- MIC (S. aureus Terajima; [12]): 3.1 µg/mL (≈ 5.15 µM)
- MIC (P.morganii IFO3445; [13]): 5 ng/mL (≈ 0.00831 µM)
- MIC (S.typhi 901): 5 ng/mL (≈ 0.00831 µM)

Reference: EP0347459A1, “CEPHALOSPORIN COMPOUNDS OR THEIR SALTS, PROCESS FOR THEIR PREPARATION, AND PHARMACEUTICAL COMPOSITIONS” (TEIJIN LIMITED, priority 1987, dated 1988)
